According to patent publication US20030229132A1, “Small molecule modulators of apoptosis” (priority 2002, published 2003):
Each block holds one compound with its values, some of them ahead of it.

Assays:
Jurkat cells = experiment: Cell viability by MTT test, Jurkat; type: cell-based, human
Description: (§1) Samples were then probed by immunoblot for (A) caspase-3 activation or (B) cleavage of PARP. (C) DNA fragmentation analysis. […] The DNA was isolated by phenol/chloroform extraction, separated on a 2% agarose gel and visualized by ethidium bromide staining. Cell viability assay.
One of the hallmarks of apoptosis is the fragmentation of chromosomal DNA into discrete, nucleosomal sized bands. […] We then examined the effects of the compounds on cell viability. Jurkat cells were incubated at different concentrations of compounds for 22 hr and then assayed by MTT test.
(§2) Normal cell lines include peripheral blood lymphocytes (PBL) isolated from donated human blood, non-transformed mammary fibroblasts (MCF-10A), human mammary epithelial cells (HMEC), human umbilical vein endothelial cells (HUVEC), and human prostate epithelial cells (PREC). Transformed cell lines include cell lines from leukemia, breast, lung, ovarian, and epidermal cancers (Table 1).

[1] = system: peripheral blood lymphocytes (PBL); experiment: Cell viability, PBL; type: cell-based, human; settings: normal cell
Text: as §1, §2

[2] = system: human mammary epithelial cells (HMEC); experiment: Cell viability, HMEC; type: cell-based
[3] = system: human prostate epithelial cells (PREC); experiment: Cell viability, PREC; type: cell-based
Text: as §2

Molt-4 = experiment: Cell viability, Molt-4; type: cell-based, human; settings: Molt-4, leukemia
Text: as §1, §2

BT-549 = experiment: Cell viability, BT-549; type: cell-based, human; settings: BT-549, breast
Text: as §2

MDA-MB-468 = experiment: Cell viability, MDA-MB-468; type: cell-based; settings: MDA-MB-468, breast
Text: as §2

MCF-7 = experiment: Cell viability, MCF-7; type: cell-based
Text: as §2

NCI-H23 = experiment: Cell viability, NCI-H23; type: cell-based, human; settings: NCI-H23, lung
[4] = system: cell lines from the NCI cancer panel; experiment: NCI cancer panel, cell growth by sulforhodamine B staining; type: cell-based
Description: Cells were exposed to serial dilutions of compound 2 continuously for 6 days, and cell growth relative to controls was determined by staining with sulforhodamine B. Some cell lines were excluded for clarity. (A) Dose-response plots for leukemia, melanoma, renal cancer and CNS cancer. (B) Dose-response plots for lung, breast and colon cancers.
Compounds 2-5 additionally were submitted to the National Cancer Institute for screening in the cancer panel. […] Compound 2 exerted a cytostatic effect on the majority of cell lines tested, inhibiting cell growth by 50-100% at 10 μM in 40 out of 48 cell lines tested. In addition, compound 2 exerted a cytotoxic effect, reducing the cell numbers by 10-50% in four cell lines and by 50-100% in eight cell lines from the initial levels when tested at 10 μM. […] Representative dose-response plots for lung, breast and colon cancer cell lines are also shown (FIG. 4B). Results for ovarian and prostate cancer were similar.

[5] = system: Apaf-1 transfected SK-OV-3 cells; experiment: Viability of SK-OV-3 cells transiently transfected with Apaf-1; type: cell-based; settings: several independent experiments
Description: (§3) (A) Jurkat cells were transfected with 20 nM Apaf-1 siRNA for 48 hr and half the cells were lysed and probed with antibodies to Apaf-1, caspase-9, and caspase-3. The other half of the cells was incubated with varying concentrations of (B), compound 2 or (C), Fas ligand for 24 hr and assayed for viability by MTT test. (D) SK-OV-3 cells were transiently transfected with Apaf-1 or vector control for 24 hr and then incubated with vary concentrations of compound 2 and assayed for viability. (E) Cyto c was titrated into SK-OV-3 cell lysate in the presence of 300 μM dATP, with or without 150 nM purified Apaf-1 and 20 μM compound 2 as indicated.
(§4) If silencing Apaf-1 in Jurkat cells make them resistant to compound 2 induced apoptosis, then it would be expected that ectopic expression of wildtype Apaf-1 in an Apaf-1 deficient cell line should render cells sensitive to compound 2. As mentioned above, the ovarian cancer cell line SK-OV-3 is deficient in Apaf-1 activity and is resistant to compound 2. Apaf-i was cloned into pcDNA-3 and transiently transfected into SK-OV-3 cells using Fugene (Roche) according to the manufacturer's instructions. Transient transfection of Apaf-1 into SK-OV-3 cells rendered them sensitive to compound 2 cytotoxicity as compared to the vector control (FIG. 5D). […]

procaspase-3 processing = experiment: Procaspase-3 processing in SK-OV-3 cell lysate with purified Apaf-1; type: biochemical; settings: 20 μM compound, 150 nM purified Apaf-1, 300 μM dATP
Description: as §3, §4

procaspases-9 and -3 = experiment: Immunoblot for cleavage of procaspases-9 and -3 in S-100 cytoplasmic extracts; type: biochemical; settings: 20 μM compound, cyto c 1.25 μM
Description: FIG. 2 depicts activity of compounds 1-5 in cell lysates. (A) Compound activation is cyto c dependent. Cyto c was titrated into S-100 cytoplasmic extracts with vehicle alone or 20 μM compound and procaspase-3 processing was assayed by capture ELISA. (B) Compound activation is dose-dependent. Compounds or vehicle were titrated into S-100 cytoplasmic extracts at a cyto c concentration of 1.25 μM and procaspases-3 processing was assayed by capture ELISA. (C) Immunoblot assay of compound-induced caspase activation. Samples at the 20 μM compound concentration in (B) were separated on SDS-polyacrylamide gel and transferred to polyvinyl membrane. The same membrane was cut and probed with antibodies to caspase-9, the large subunit of active caspase-3, and P13 kinase as a loading control. (D) Compounds act upstream of caspase-9 activation. Cyto c was titrated into caspase-3 immunodepleted extracts with or without 20 μM compounds and assayed by immunoblot for procaspase-9 processing.
To directly visualize the processing of procaspases induced by the compounds, samples at the 20 μM compound concentration in FIG. 2B were assayed by immunoblot for the cleavage of procaspases-9 and -3.

- IC50 (Jurkat cells; Jurkhat, leukemia, p53 +): 4 µM
- IC50 (Molt-4): 6 µM
- IC50 (BT-549): 20 µM
- IC50 (MDA-MB-468): 44 µM
- IC50 (MCF-7; MCF-7, breast, caspase-3 deficient): > 50 µM
- IC50 (NCI-H23): 35 µM
SMILES: O=C1C(=O)N(Cc2ccc(Cl)c(Cl)c2)c2ccccc21 [Compound 2]
- EC50 (Jurkat cells; Jurkat, 22 hr, MTT test, read-out: EC50 cell killing): ~5 µM
- IC50 [1]: 50 µM
- effect on cells ([2]; HMEC cells, up to 50 μM): no effect except at the highest concentration
- IC50 ([2]; HMEC, normal cell): > 50 µM
- effect on cells ([3]; PREC cells, up to 50 μM): no effect except at the highest concentration
- IC50 ([3]; PREC, normal cell): > 50 µM
- effect on cells (MCF-7; MCF-7, deficient in caspase-3 activity): no effect
- inhibition of cell growth (cytostatic effect) ([4]; 10 μM, in 40 out of 48 cell lines tested, 6 days): 50-100%
- reduction of cell numbers from the initial levels (cytotoxic effect) ([4]; 10 μM, in eight cell lines): 50-100%
- reduction of cell numbers from the initial levels (cytotoxic effect) ([4]; 10 μM, in four cell lines): 10-50%
- cytotoxicity ([4]; 100 μM, virtually all cell lines): 100%
- sensitivity relative to the mean response of the panel ([4]; CCRF-CEM, MOLT-4, LOX IMVI, SN 12C, SF-295): 5-10 fold
- overall activity in the cancer panel ([4]; among compounds 2-5): most active overall
- viability of cells exposed to compound (plateau) [5]: 40-50%
- effect on cyto c activation curve of procaspase-3 processing (procaspase-3 processing): shifted the activation curve to the left

SMILES: O=C(NCc1ccc(Cl)c(Cl)c1)OC1CCc2ccccc21 (stereo not shown) [Compound 4]
- processing of procaspases-9 and -3 (procaspases-9 and -3): limited processing
